Experimental data: patent US20240366589A1, “NHE3-BINDING COMPOUNDS AND METHODS FOR INHIBITING PHOSPHATE TRANSPORT” (Ardelyx, Inc., priority 2013, published 2024)

How the values were obtained:
Rat NHE3 = molecular target: T1, Rat NHE3 (Rattus norvegicus, UniProt P26433); assay: Cell-based NHE3 activity under persistent conditions (60 min incubation, washout), rat NHE3; details: Table E5; 40 min after compound washout; dihydrochloride salt
T1 construct: expressed in transfected cells; host or cells: Opossum kidney (OK) cells (ATCC), electroporation
Procedure: Cell-based activity of NHE3 Activity under ‘Persistent’ Conditions. The ability of compounds to inhibit Rat NHE3-mediated Na^+-dependent H^+ antiport after application and washout was measured using a modification of the pH sensitive dye method described above. Opossum kidney (OK) cells were obtained from the ATCC and propagated per their instructions. The rat NHE3 gene was introduced into OK cells via electroporation, and cells were seeded into 96 well plates and grown overnight. Medium was aspirated from the wells, cells were washed twice with NaCl-HEPES buffer (100 mM NaCl, 50 mM HEPES, 10 mM glucose, 5 mM KCl, 2 mM CaCl2, 1 mM MgCl2, pH 7.4), then overlayed with NaCl-HEPES buffer containing 0-30 μM test compound.
After a 60 min incubation, the test drug containing buffer was aspirated from the cells, cells were washed twice with NaCl-HEPES buffer without drug, then incubated for 30 min at room temperature with NH4Cl-HEPES buffer (20 mM NH4Cl, 80 mM NaCl, 50 mM HEPES, 5 mM KCl, 2 mM CaCl2, 1 mM MgCl2, pH 7.4) containing 5 μM BCECF-AM. Cells were washed twice with Ammonium free, Na^+-free HEPES (100 mM choline, 50 mM HEPES, 10 mM glucose, 5 mM KCl, 2 mM CaCl2, 1 mM MgCl2, pH 7.4) and incubated in the same buffer for 10 minutes at room temperature to lower intracellular pH. […]

Human NHE3 = molecular target: T2, Human NHE3 (Homo sapiens, UniProt P48764); assay: Cell-based NHE3 activity under prompt conditions (OK cells, BCECF pH recovery), human NHE3; details: for Human NHE3 pIC50 Prompt: Table E5, 001 free base, 002-005 dihydrochloride salt; for pIC50 Prompt: Table E6, NHE3 species not stated
T2 construct: expressed in transfected cells; host or cells: Opossum kidney (OK) cells (ATCC), electroporation
T2 sequence (P48764 26-834): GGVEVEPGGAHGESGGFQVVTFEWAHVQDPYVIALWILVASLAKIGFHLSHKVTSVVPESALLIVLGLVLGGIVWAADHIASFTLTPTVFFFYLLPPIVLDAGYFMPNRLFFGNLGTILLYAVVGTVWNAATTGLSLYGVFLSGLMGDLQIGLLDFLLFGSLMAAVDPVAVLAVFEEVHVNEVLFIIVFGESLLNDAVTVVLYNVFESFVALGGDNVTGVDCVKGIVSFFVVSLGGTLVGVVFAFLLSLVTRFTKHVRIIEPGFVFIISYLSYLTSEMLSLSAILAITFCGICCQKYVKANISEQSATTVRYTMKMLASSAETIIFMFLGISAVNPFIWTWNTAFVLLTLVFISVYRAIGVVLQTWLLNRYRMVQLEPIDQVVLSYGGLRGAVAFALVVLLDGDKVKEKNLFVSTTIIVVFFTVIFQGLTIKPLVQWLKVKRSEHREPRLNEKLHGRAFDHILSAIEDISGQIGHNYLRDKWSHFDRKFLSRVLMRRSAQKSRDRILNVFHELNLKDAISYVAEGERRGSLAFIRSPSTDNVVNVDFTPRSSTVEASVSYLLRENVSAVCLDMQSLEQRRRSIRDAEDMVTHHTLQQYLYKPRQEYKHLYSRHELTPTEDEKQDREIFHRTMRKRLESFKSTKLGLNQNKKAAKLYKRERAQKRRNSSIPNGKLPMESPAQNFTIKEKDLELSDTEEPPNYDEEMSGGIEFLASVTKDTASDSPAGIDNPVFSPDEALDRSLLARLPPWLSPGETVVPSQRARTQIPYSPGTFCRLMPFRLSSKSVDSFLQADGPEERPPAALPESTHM
Summary of the method: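 Opossum kidney cells transfected with rat or human NHE3 underwent ammonium prepulse (20 mM NH4Cl, pH 7.4, 30 min) then 10 min in Na+-free buffer, room temperature.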

[1] = tested on: dietary salt-induced, partial renal ablation model of CKD; assay: Dietary salt-induced, partial renal ablation model of CKD in nephrectomized rats; type: in vivo, rat
Procedure: The effects of Cpd 002 (from Table E4, as the dihydrochloride salt) were tested in a dietary salt-induced, partial renal ablation model of CKD. The study design is illustrated in FIG. 11A (12 rats per group).

[2] = tested on: adenine-induced uremic rat model; assay: Adenine-induced uremic rat model; type: in vivo
Procedure: The effects of Cpd 002 (from Table E4, as the dihydrochloride salt) were tested in an adenine-induced uremic rat model. Rats were fed a diet including 0.75% adenine and 1.2% phosphorus during the nephritis induction phase. The basal diet during the treatment phase was normal chow including 0.3% adenine and 0.6% phosphorus for 2 weeks. The rats were pair-fed the first 5 days (groups 1 and 2 to group 3, 4 days apart), and fed ad libitum afterwards. The treatment groups were as follows: vehicle, n=10; Cpd 002, 2 mg/kg/day drug-in-chow, n=10; and Cpd 002, 5 mg/kg/day drug-in-chow, n=12. Weekly measurements were taken for serum markers and kidney function. The study design is illustrated in FIG. 8A.

[3] = early time points, 2 and 5 mg/kg/day drug-in-chow
[4] = week three, highest dose 5 mg/kg/day

T1 sequence (P26433 29-831): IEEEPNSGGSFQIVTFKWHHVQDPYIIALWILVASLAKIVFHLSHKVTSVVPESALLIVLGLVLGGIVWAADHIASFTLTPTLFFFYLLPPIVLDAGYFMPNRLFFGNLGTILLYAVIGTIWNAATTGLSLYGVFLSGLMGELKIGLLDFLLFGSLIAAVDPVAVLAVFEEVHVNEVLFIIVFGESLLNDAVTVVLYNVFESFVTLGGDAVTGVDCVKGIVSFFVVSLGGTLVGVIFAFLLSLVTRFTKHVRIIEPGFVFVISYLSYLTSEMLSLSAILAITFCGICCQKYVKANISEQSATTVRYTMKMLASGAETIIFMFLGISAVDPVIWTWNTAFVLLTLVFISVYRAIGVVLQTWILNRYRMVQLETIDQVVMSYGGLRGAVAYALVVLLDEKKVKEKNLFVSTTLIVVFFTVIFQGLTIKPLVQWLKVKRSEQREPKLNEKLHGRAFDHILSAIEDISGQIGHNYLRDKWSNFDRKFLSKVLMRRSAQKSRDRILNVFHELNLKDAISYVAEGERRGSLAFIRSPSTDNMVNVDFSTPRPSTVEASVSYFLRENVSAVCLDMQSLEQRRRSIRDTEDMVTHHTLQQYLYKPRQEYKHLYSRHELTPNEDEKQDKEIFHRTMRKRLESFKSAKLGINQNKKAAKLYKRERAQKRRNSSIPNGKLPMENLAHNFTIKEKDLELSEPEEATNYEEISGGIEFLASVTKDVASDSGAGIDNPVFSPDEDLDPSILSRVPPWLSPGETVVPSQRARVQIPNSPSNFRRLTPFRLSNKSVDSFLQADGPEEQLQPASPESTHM

CN1Cc2c(Cl)cc(Cl)cc2[C@@H](c2cccc(S(=O)(=O)NCCOCCOCCNC(=O)NCCCCNC(=O)NCCOCCOCCNS(=O)(=O)c3cccc([C@H]4CN(C)Cc5c(Cl)cc(Cl)cc54)c3)c2)C1 [Cpd 004]
Rat NHE3 pIC50 Persistent (Rat NHE3): 5.6
Human NHE3 pIC50 Prompt (Human NHE3): 7.3
pIC50 Prompt (Human NHE3): 7.3

CN1Cc2c(Cl)cc(Cl)cc2[C@H](c2cccc(S(=O)(=O)NCCOCCOCCNC(=O)NCCCCNC(=O)NCCOCCOCCNS(=O)(=O)c3cccc([C@@H]4CN(C)Cc5c(Cl)cc(Cl)cc54)c3)c2)C1 [Cpd 002]
Rat NHE3 pIC50 Persistent (Rat NHE3): 8.4
Human NHE3 pIC50 Prompt (Human NHE3): 8
pIC50 Prompt (Human NHE3): 8
phosphorus urinary excretion ([1]; FIG. 11B): significantly reduced
blood pressure ([1]; dihydrochloride salt): improved
albuminuria ([1]; rat, in vivo): improved
fluid overload ([1]; rat, in vivo): improved
heart hypertrophy ([1]; rat, in vivo): improved
kidney hypertrophy ([1]; rat, in vivo): improved
serum creatinine [2, 3]: reduced
serum phosphorus [2, 3]: reduced
heart remodeling (organ weight) ([2]; week three): trend towards lesser heart and kidney remodeling
kidney remodeling (organ weight) ([2]; week three): trend towards lesser heart and kidney remodeling
heart calcification (tissue mineralization) [2, 4]: trend towards reduced heart and kidney calcification
kidney calcification (tissue mineralization) [2, 4]: trend towards reduced heart and kidney calcification
